For 28 compounds, pEC50 results are on record in US11746100B2 (GLOBAL BLOOD THERAPEUTICS, INC., priority 2020, dated 2023).

What is called pEC50 is −log10 of the EC50, conventionally taken in molar units. Low values mean a large EC50, high ones a small EC50.

For this assay, the target named is T1, human ferroportin (Homo sapiens, UniProt Q9NP59).
T1 construct: luciferase reporter (read with the Nano-Glo Luciferase Assay System); expressed in transfected cells; host or cells: CHO cells, stably transfected, expression induced with doxycycline
T1 sequence (Q9NP59 1-571): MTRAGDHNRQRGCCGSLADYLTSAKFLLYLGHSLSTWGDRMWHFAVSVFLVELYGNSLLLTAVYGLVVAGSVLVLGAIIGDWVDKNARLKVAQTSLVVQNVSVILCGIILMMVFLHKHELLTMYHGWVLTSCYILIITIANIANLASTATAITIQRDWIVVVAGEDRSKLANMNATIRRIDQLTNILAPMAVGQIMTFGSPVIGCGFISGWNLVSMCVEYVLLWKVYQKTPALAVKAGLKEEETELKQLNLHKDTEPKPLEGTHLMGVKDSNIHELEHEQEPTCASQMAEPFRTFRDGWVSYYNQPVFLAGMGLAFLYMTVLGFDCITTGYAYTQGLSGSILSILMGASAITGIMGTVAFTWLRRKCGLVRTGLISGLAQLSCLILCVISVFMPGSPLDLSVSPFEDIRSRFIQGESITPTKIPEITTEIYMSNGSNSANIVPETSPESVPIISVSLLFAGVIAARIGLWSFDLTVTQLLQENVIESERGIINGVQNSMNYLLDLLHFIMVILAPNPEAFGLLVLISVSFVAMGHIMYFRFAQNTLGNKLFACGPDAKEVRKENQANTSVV
Nature of the assay: Biological in-vitro ferroportin internalization assay (luciferase reporter). The format is cell-based. The conditions noted are these: average pEC50; stably-transfected CHO cell line expressing human ferroportin tagged to a luciferase reporter; 6 h incubation with test compound. The method, boiled down:
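Read-out is Nano-Glo luciferase signal after 6 h compound exposure, with average pEC50 derived. Cells are a stable CHO line carrying luciferase-tagged human ferroportin, pre-loaded 24 h with ferric ammonium citrate and doxycycline-induced for 24 h.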
In turn, `C[C@H](C(=O)Nc1ccnnc1)N(C)c1nc(-c2cc3ccccc3cn2)nc2c1CCC2` [Compound 273, (2R)-2-{[2-(isoquinolin-3-yl)-5H,6H,7H-cyclopenta[d]pyrimidin-4-yl](methyl)amino}-N-(pyridazin-4-yl)propanamide] returned a pEC50 of 7.8.

`CN(CC(=O)Nc1cccc(F)c1)c1nc(-c2cc(OCCO)ccn2)nc2c1CCC2` [Compound 167, N-(3-fluorophenyl)-2-({2-[4-(2-hydroxyethoxy)pyridin-2-yl]-5H,6H,7H-cyclopenta[d]pyrimidin-4-yl}(methyl)amino)acetamide] came in with a negative logarithm of the EC50 (pEC50) of 7.9. This pEC50 and that of the compound before are within 0.2 log units of each other. To `COc1ccc(NC(=O)CN(C)c2nc(-c3cc(O[C@@H]4CCOC4)ccn3)nc3c2CCC3)cn1` [Compound 346, N-(6-methoxypyridin-3-yl)-2-[methyl(2-{4-[(3R)-oxolan-3-yloxy]pyridin-2-yl}-5H,6H,7H-cyclopenta[d]pyrimidin-4-yl)amino]acetamide] belongs 7.6; to `Cc1cnc(-c2nc3c(c(N(C)CC(=O)NC(C)(C)C)n2)CCC3)cc1OCCO` [Compound 191, N-tert-butyl-2-({2-[4-(2-hydroxyethoxy)-5-methylpyridin-2-yl]-5H,6H,7H-cyclopenta[d]pyrimidin-4-yl}(methyl)amino)acetamide], 7. Under `Cc1ccc(NC(=O)CN(C)c2nc(-c3cc4cc(CO)ccc4cn3)nc3c2CCC3)cn1` [Compound 297, 2-({2-[6-(hydroxymethyl)isoquinolin-3-yl]-5H,6H,7H-cyclopenta[d]pyrimidin-4-yl}(methyl)amino)-N-(6-methylpyridin-3-yl)acetamide] stands 7.5; under `CN(CC(=O)NC1(C)CCCCC1)c1nc(-c2ccccn2)nc2c1CCC2` [Compound 25, 2-{methyl[2-(pyridin-2-yl)-5H,6H,7H-cyclopenta[d]pyrimidin-4-yl]amino}-N-(1-methylcyclohexyl)acetamide], 7.1; under `CN(CC(=O)Nc1ccc2c(c1)OC(F)(F)O2)c1nc(-c2ccccn2)nc2c1CCC2` [Compound 32, N-(2,2-difluoro-2H-1,3-benzodioxol-5-yl)-2-{methyl[2-(pyridin-2-yl)-5H,6H,7H-cyclopenta[d]pyrimidin-4-yl]amino}acetamide], 7.2.

With `CN(c1nc(-c2cc(OCCO)ccn2)nc2c1CCC2)[C@H]1CCCN(c2cccc(F)c2)C1=O` [Compound 320, (3S)-1-(3-fluorophenyl)-3-({2-[4-(2-hydroxyethoxy)pyridin-2-yl]-5H,6H,7H-cyclopenta[d]pyrimidin-4-yl}(methyl)amino)piperidin-2-one], the negative-log EC50 (pEC50) came to 7.1. To `O=C(CNc1nc(-c2ccccn2)nc2c1CCC2)Nc1ccc2cccnc2c1` [Compound 7, 2-{[2-(pyridin-2-yl)-5H,6H,7H-cyclopenta[d]pyrimidin-4-yl]amino}-N-(quinolin-7-yl)acetamide] belongs 6.6. To `CN(CC(=O)Nc1cnn(C)c1)c1nc(-c2cc(OC(F)F)ccn2)nc2c1CCC2` [Compound 213, 2-({2-[4-(difluoromethoxy)pyridin-2-yl]-5H,6H,7H-cyclopenta[d]pyrimidin-4-yl}(methyl)amino)-N-(1-methyl-1H-pyrazol-4-yl)acetamide] belongs 6.4; to `CN(CC(=O)Nc1cccc(F)c1)c1nc(-c2cc3c(cn2)OCCO3)nc2c1CCC2` [Compound 282, 2-[(2-{2H,3H-[1,4]dioxino[2,3-c]pyridin-7-yl}-5H,6H,7H-cyclopenta[d]pyrimidin-4-yl)(methyl)amino]-N-(3-fluorophenyl)acetamide], 7.5.

Turning to `CN(CC(=O)NC(C)(C)C)c1nc(-c2ccc(Cl)cn2)nc2c1CCC2` [Compound 300, N-tert-butyl-2-{[2-(5-chloropyridin-2-yl)-5H,6H,7H-cyclopenta[d]pyrimidin-4-yl](methyl)amino}acetamide], the negative logarithm of the EC50 (pEC50) is on record as 6.2. In turn, `CN(CC(=O)NC(C)(C)C)c1nc(-c2cc(O)ccn2)nc2c1CCC2` [Compound 482, N-tert-butyl-2-{[2-(4-hydroxypyridin-2-yl)-5H,6H,7H-cyclopenta[d]pyrimidin-4-yl](methyl)amino}acetamide] registered a negative-log EC50 (pEC50) of 6.1. This pEC50 and that of the compound before are within 0.2 log units of each other. In turn, `COc1ccnc(-c2nc3c(c(N(C)CC(=O)NC4CCOCC4)n2)CCC3)c1` [Compound 134, 2-{[2-(4-methoxypyridin-2-yl)-5H,6H,7H-cyclopenta[d]pyrimidin-4-yl](methyl)amino}-N-(oxan-4-yl)acetamide] yielded a pEC50 of 6.9. The compound `CCN(CC(=O)NC(C)(C)C)c1nc(-c2cc(OC)ccn2)nc2c1CCC2` [Compound 126, N-tert-butyl-2-{ethyl[2-(4-methoxypyridin-2-yl)-5H,6H,7H-cyclopenta[d]pyrimidin-4-yl]amino}acetamide] gave a pEC50 of 7.9. In turn, `CN(CC(=O)N1CCC(F)CC1)c1nc(-c2cc(OCCO)ccn2)nc2c1CCC2` [Compound 359, 1-(4-fluoropiperidin-1-yl)-2-({2-[4-(2-hydroxyethoxy)pyridin-2-yl]-5H,6H,7H-cyclopenta[d]pyrimidin-4-yl}(methyl)amino)ethan-1-one] registered a pEC50 of 7.5. To `CN(C)CCOc1ccnc(-c2nc3c(c(N(C)CC(=O)Nc4cccc(F)c4)n2)CCC3)c1` [Compound 294, 2-[(2-{4-[2-(dimethylamino)ethoxy]pyridin-2-yl}-5H,6H,7H-cyclopenta[d]pyrimidin-4-yl)(methyl)amino]-N-(3-fluorophenyl)acetamide] belongs 7.9; to `CN(CC(=O)NC(C)(C)C)c1nc(-c2nccn2C)nc2c1CCC2` [Compound 162, N-tert-butyl-2-{methyl[2-(1-methyl-1H-imidazol-2-yl)-5H,6H,7H-cyclopenta[d]pyrimidin-4-yl]amino}acetamide], 5.7; to `Cc1cnc(NC(=O)CN(C)c2nc(-c3cc(OCCO)ccn3)nc3c2CCC3)cn1` [Compound 284, 2-({2-[4-(2-hydroxyethoxy)pyridin-2-yl]-5H,6H,7H-cyclopenta[d]pyrimidin-4-yl}(methyl)amino)-N-(5-methylpyrazin-2-yl)acetamide], 7.7. Under `CN(CC(=O)Nc1cccc(F)c1)c1nc(-c2cc(OCCN)ccn2)nc2c1CCC2` [Compound 293, 2-({2-[4-(2-aminoethoxy)pyridin-2-yl]-5H,6H,7H-cyclopenta[d]pyrimidin-4-yl}(methyl)amino)-N-(3-fluoropehnyl)acetamide] stands 7.9. To `CN(CC(=O)NC(C)(C)C)c1nc(-c2cc3c(cn2)OCO3)nc2c1CCC2` [Compound 226, N-tert-butyl-2-[(2-{2H-[1,3]dioxolo[4,5-c]pyridin-6-yl}-5H,6H,7H-cyclopenta[d]pyrimidin-4-yl)(methyl)amino]acetamide] belongs 7.1. As for `Cc1ccnc(-c2nc3c(c(N(C)CC(=O)NC4CCCC4)n2)CCC3)c1` [Compound 64, N-cyclopentyl-2-{methyl[2-(4-methylpyridin-2-yl)-5H,6H,7H-cyclopenta[d]pyrimidin-4-yl]amino}acetamide], the pEC50 was determined as 7.8. Under `COc1cc(-c2nc3c(c(N(C)CC(=O)Nc4ccc(C)nc4)n2)CCC3)ncc1F` [Compound 306, 2-{[2-(5-fluoro-4-methoxypyridin-2-yl)-5H,6H,7H-cyclopenta[d]pyrimidin-4-yl](methyl)amino}-N-(6-methylpyridin-3-yl)acetamide] stands 6.6. To `CN(CC(=O)Nc1ccc(F)nc1)c1nc(-c2cc3ccccc3cn2)nc2c1CCC2` [Compound 221, N-(6-fluoropyridin-3-yl)-2-{[2-(isoquinolin-3-yl)-5H,6H,7H-cyclopenta[d]pyrimidin-4-yl](methyl)amino}acetamide] belongs 7; to `CN(CC(=O)Nc1nnc(N2CCCCCC2)s1)c1nc(-c2ccccn2)nc2c1CCC2` [Compound 70, N-[5-(azepan-1-yl)-1,3,4-thiadiazol-2-yl]-2-{methyl[2-(pyridin-2-yl)-5H,6H,7H-cyclopenta[d]pyrimidin-4-yl]amino}acetamide], 7.4. In the case of `CN(CC(=O)NC(C)(C)C)c1nc(-c2cc3ccoc3cn2)nc2c1CCC2` [Compound 365, N-tert-butyl-2-[(2-{furo[2,3-c]pyridin-5-yl}-5H,6H,7H-cyclopenta[d]pyrimidin-4-yl)(methyl)amino]acetamide], the negative-log EC50 (pEC50) came to 7.4. Compound `CCC(C)(O)COc1ccnc(-c2nc3c(c(N(C)CC(=O)NC(C)(C)C)n2)CCC3)c1` (stereo in doubt) [Compound 446, N-tert-butyl-2-[(2-{4-[(2R)-2-hydroxy-2-methylbutoxy]pyridin-2-yl}-5H,6H,7H-cyclopenta[d]pyrimidin-4-yl)(methyl)amino]acetamide] returned a pEC50 of 8.2.

As for `CN(CC(=O)NC1(C(F)(F)F)CC1)c1nc(-c2cn(C)cn2)nc2c1CCC2` [Compound 111, 2-{methyl[2-(1-methyl-1H-imidazol-4-yl)-5H,6H,7H-cyclopenta[d]pyrimidin-4-yl]amino}-N-[1-(trifluoromethyl)cyclopropyl]acetamide], the pEC50 was 7.2.
